Among the data in ChEMBL document CHEMBL5316338, “Discovery of Novel PTP1B Inhibitors with Once-Weekly Therapeutic Potential for Type 2 Diabetes: Design, Synthesis, and In Vitro and In Vivo Investigations of BimBH3 Peptide Analogues” (J Med Chem, 2023) are inhibition values, retold here.

Numbered stars: 1 amine (or outer) side, 2 acyl side, 3 side chain; on linkers, the order of the positions; unused ones are H or OH. Square brackets hold non-standard residues; d marks the D form. Peptide text beside a SMILES is read from it. * marks the point of attachment. ξ: configuration not given here. C14 diacid = O=C(O)CCCCCCCCCCCCC(=O)*; C12 diacid = O=C(O)CCCCCCCCCCC(=O)*; Adipoyl = O=C(CCCCC(=O)[*:2])[*:1]; Malonyl = O=C(CC(=O)[*:2])[*:1]; ξR = N=C(N)NCCCC(N)C(=O)O; Octanoyl = CCCCCCCC(=O)*; Hexanoyl = CCCCCC(=O)*; Pentanoyl = CCCCC(=O)*; Propionyl = CCC(=O)*; Butyryl = CCCC(=O)*

Usually inhibition stands for how much of the control response was suppressed.

In the test the target is T1, Tyrosine-protein phosphatase non-receptor type 1 (Homo sapiens) (UniProt P18031).
T1 sequence (whole entry): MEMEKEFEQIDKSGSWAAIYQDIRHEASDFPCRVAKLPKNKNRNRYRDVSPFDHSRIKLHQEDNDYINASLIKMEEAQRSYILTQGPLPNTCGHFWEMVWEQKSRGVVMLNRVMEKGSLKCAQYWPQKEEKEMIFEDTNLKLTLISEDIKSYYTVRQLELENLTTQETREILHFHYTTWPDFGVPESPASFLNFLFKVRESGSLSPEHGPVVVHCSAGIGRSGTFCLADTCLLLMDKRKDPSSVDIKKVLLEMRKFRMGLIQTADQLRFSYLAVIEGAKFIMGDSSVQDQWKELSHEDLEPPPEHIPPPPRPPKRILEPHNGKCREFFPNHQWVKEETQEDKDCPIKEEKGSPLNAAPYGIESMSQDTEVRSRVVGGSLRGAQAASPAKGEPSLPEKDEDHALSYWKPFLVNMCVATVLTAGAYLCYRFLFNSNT
As to the kind of experiment: Inhibition of N-terminal His tagged recombinant human PTP1B expressed in Escherichia coli using pNPP as substrate assessed as substrate hydrolysis at 40 umol/L relative to control. The note with it: dose 40.0 µmol/L.
For `CCCCCCCC(=O)N[C@H](C(=O)N[C@@H](C)C(=O)N[C@@H](CCC(N)=O)C(=O)N[C@@H](CCC(=O)O)C(=O)N[C@@H](CC(C)C)C(=O)N[C@@H](CCCNC(=N)N)C(=O)N[C@@H](CCCNC(=N)N)C(=O)N[C@H](C(=O)NCC(=O)N[C@@H](CC(=O)O)C(=O)N[C@@H](CCC(=O)O)C(=O)N[C@@H](Cc1ccccc1)C(=O)O)[C@@H](C)CC)[C@@H](C)CC` (Octanoyl-IAQELRRIGDEF-OH), the inhibition is < 50%.

As for Ac-IAQELRRIGDEF-OH, the inhibition was < 50%.

`CC[C@H](C)[C@H](NC(=O)CCCCC(=O)O)C(=O)N[C@@H](C)C(=O)N[C@@H](CCC(N)=O)C(=O)N[C@@H](CCC(=O)O)C(=O)N[C@@H](CC(C)C)C(=O)N[C@@H](CCCNC(=N)N)C(=O)N[C@@H](CCCNC(=N)N)C(=O)N[C@H](C(=O)NCC(=O)N[C@@H](CC(=O)O)C(=O)N[C@@H](CCC(=O)O)C(=O)N[C@@H](Cc1ccccc1)C(=O)O)[C@@H](C)CC` (Adipoyl-IAQELRRIGDEF-OH): the inhibition was < 50%.

Consider `CC[C@H](C)[C@H](NC(=O)CC(=O)O)C(=O)N[C@@H](C)C(=O)N[C@@H](CCC(N)=O)C(=O)N[C@@H](CCC(=O)O)C(=O)N[C@@H](CC(C)C)C(=O)N[C@@H](CCCNC(=N)N)C(=O)N[C@@H](CCCNC(=N)N)C(=O)N[C@H](C(=O)NCC(=O)N[C@@H](CC(=O)O)C(=O)N[C@@H](CCC(=O)O)C(=O)N[C@@H](Cc1ccccc1)C(=O)O)[C@@H](C)CC` (Malonyl-IAQELRRIGDEF-OH), for which the inhibition is < 50%.

Consider `CCC(=O)N[C@H](C(=O)N[C@@H](C)C(=O)N[C@@H](CCC(N)=O)C(=O)N[C@@H](CCC(=O)O)C(=O)N[C@@H](CC(C)C)C(=O)N[C@@H](CCCNC(=N)N)C(=O)N[C@@H](CCCNC(=N)N)C(=O)N[C@H](C(=O)NCC(=O)N[C@@H](CC(=O)O)C(=O)N[C@@H](CCC(=O)O)C(=O)N[C@@H](Cc1ccccc1)C(=O)O)[C@@H](C)CC)[C@@H](C)CC` (Propionyl-IAQELRRIGDEF-OH), for which the inhibition is < 50%.

On to `CC[C@H](C)[C@H](NC(=O)CCCCCCCCCCC(=O)O)C(=O)N[C@@H](C)C(=O)N[C@@H](CCC(N)=O)C(=O)N[C@@H](CCC(=O)O)C(=O)N[C@@H](CC(C)C)C(=O)N[C@@H](CCCNC(=N)N)C(=O)N[C@@H](CCCNC(=N)N)C(=O)N[C@H](C(=O)NCC(=O)N[C@@H](CC(=O)O)C(=O)N[C@@H](CCC(=O)O)C(=O)N[C@@H](Cc1ccccc1)C(=O)O)[C@@H](C)CC` ({C12 diacid}-IAQELRRIGDEF-OH), for which the inhibition was < 50%.

For the compound `CCCCCC(=O)N[C@H](C(=O)N[C@@H](C)C(=O)N[C@@H](CCC(N)=O)C(=O)N[C@@H](CCC(=O)O)C(=O)N[C@@H](CC(C)C)C(=O)N[C@@H](CCCNC(=N)N)C(=O)N[C@@H](CCCNC(=N)N)C(=O)N[C@H](C(=O)NCC(=O)N[C@@H](CC(=O)O)C(=O)N[C@@H](CCC(=O)O)C(=O)N[C@@H](Cc1ccccc1)C(=O)O)[C@@H](C)CC)[C@@H](C)CC` (Hexanoyl-IAQELRRIGDEF-OH), the inhibition was < 50%.

As to `CC[C@H](C)[C@H](NC(=O)CCCCCCCCCCCCC(=O)O)C(=O)N[C@@H](C)C(=O)N[C@@H](CCC(N)=O)C(=O)N[C@@H](CCC(=O)O)C(=O)N[C@@H](CC(C)C)C(=O)N[C@@H](CCCNC(=N)N)C(=O)NC(CCCNC(=N)N)C(=O)N[C@H](C(=O)NCC(=O)N[C@@H](CC(=O)O)C(=O)N[C@@H](CCC(=O)O)C(=O)N[C@@H](Cc1ccccc1)C(=O)O)[C@@H](C)CC` (stereo not given in full) ({C14 diacid}-IAQELR[ξR]IGDEF-OH), the inhibition is < 50%.

`CCCC(=O)N[C@H](C(=O)N[C@@H](C)C(=O)N[C@@H](CCC(N)=O)C(=O)N[C@@H](CCC(=O)O)C(=O)N[C@@H](CC(C)C)C(=O)N[C@@H](CCCNC(=N)N)C(=O)N[C@@H](CCCNC(=N)N)C(=O)N[C@H](C(=O)NCC(=O)N[C@@H](CC(=O)O)C(=O)N[C@@H](CCC(=O)O)C(=O)N[C@@H](Cc1ccccc1)C(=O)O)[C@@H](C)CC)[C@@H](C)CC` (Butyryl-IAQELRRIGDEF-OH): the inhibition was < 50%.

As for `CCCCC(=O)N[C@H](C(=O)N[C@@H](C)C(=O)N[C@@H](CCC(N)=O)C(=O)N[C@@H](CCC(=O)O)C(=O)N[C@@H](CC(C)C)C(=O)N[C@@H](CCCNC(=N)N)C(=O)N[C@@H](CCCNC(=N)N)C(=O)N[C@H](C(=O)NCC(=O)N[C@@H](CC(=O)O)C(=O)N[C@@H](CCC(=O)O)C(=O)N[C@@H](Cc1ccccc1)C(=O)O)[C@@H](C)CC)[C@@H](C)CC` (Pentanoyl-IAQELRRIGDEF-OH), the inhibition was < 50%.
